How the values were obtained:
LS174T [1] = experiment: SCID mouse LS174T intraperitoneal xenograft model, surviving period; type: in vivo; settings: LS174T i.p., CPT-11 10 mg/kg; for surviving period median (median survival time: MST): N26 antibody 5 mg/kg, 5-FU 50 mg/kg, caudal vein once a week x4, adjuvant group 24 days; for prolongation of surviving period in comparison with the adjuvant alone group: log-rank test, N26 5 mg/kg, 5-FU 50 mg/kg once a week x4
Method: (1) SCID mouse and colorectal cancer cell line
SCID mice (C.B-17/Icr-scid, female, 6-weeks old) were purchased from CLEA Japan Inc. and reared in an SPF (specific pathogen free) equipment.
A colorectal cancer-derived cell line LS174T (purchased from ATCC) was used as the tumor cell and cultured using RPMI 1640 medium (manufactured by GIBCO, Invitrogen) containing 10% FBS (manufactured by HyClone) and 1% penicillin-streptomycin (manufactured by GIBCO, Invitrogen).
A xenograft model was prepared by intraperitoneally transplanting the cultured LS174T cell into the SCID mouse at a dose of 1×10^7 cells/200 μl/head.
An anti-A33 human antibody (KRN330) (hereinafter referred to as N26 antibody) comprising the heavy chain variable region represented by SEQ ID NO:23 and the light chain variable region represented by SEQ ID NO:25 was used as an anti-A33 human antibody.
5-FU (5FU Injection 250 Kyowa) was obtained from Kyowa Hakko Kirin Co., Ltd. and CPT-11 (Campto (registered trademark) Injection or Irinotecan Hydrochloride Injection) was obtained from YAKULT HONSHA CO., LTD. In the control group, a dilution medium of the anti-A33 human antibody (10 mM of sodium L-glutamate, 262 mM of D-sorbitol and 0.05 mg/ml of polysorbate 80, pH 5.5) was used.
Administration schedules of agents are shown in FIG. (A)(a) and FIG. 1(B)(a), respectively. After transplanting the cultured LS174 cell into the abdominal cavity of SCID mice on day 0, their body weights were measured on the next day of the transplantation (on day 1) to divide them into six groups in such a manner that the average body weight of each group became equal (A, B, E and F groups=seven animals per group, C and D groups=six animals per group).
The grouping day was regarded as the initial administration day, and thereafter, 5 mg/kg of an anti-A33 human antibody, 10 mg/kg of CPT-11 (irinotecan) or 50 mg/kg of 5-FU was administered into the mouse caudal vein at a dose of 10 ml/kg, four times (on day 1, day 8, day 15 and day 22) at a frequency of once a week, and the surviving period was monitored. On the same day of the drug administration, an adjuvant was intravenously administered to the control group.
Survival curve of each administration group was plotted by the Kaplan-Meier method and the survival curves of each group were compared using log-rank test, with the results shown in FIG. 1(A)(b) and FIG. 1(A)(c) and FIG. 1(B)(b) and FIG. 1(B)(c). In this connection, though the results of FIG. 1(A)(b) and FIG. 1(A)(c) and FIG. 1(B)(b), and FIG. 1(B)(c) are separately shown, these were carried out in the same test, and results of the control group and the N26 antibody (5 mg/kg) group in FIG. 1(A)(b) and FIG. 1(A)(c) are identical to those in FIG. 1(B)(b) and FIG. 1(B)(c).

LS174T [2] = experiment: Nude rat LS174T subcutaneous xenograft model, tumor volume
Method: Nude rat (F344/NJcl-rnu/rnu, female, 8 weeks old) was purchased from CLEA Japan Inc. and reared in an SPF equipment.
Oxaliplatin (ELPLAT (registered trademark) For Injection or Oxaliplatin For Injection) was obtained from YAKULT HONSHA CO., LTD., and Avastin (registered trademark) (bevacizumab) was obtained from Genentech Inc.
Administration schedule of each agent was carried out in the following manner. When the size of tumor became from 30 m^3 to 50 m^3 after subcutaneously grafting with LS174T cell to the nude rat, grouping was carried out so as to be five animals per group in such a manner that the tumor volume of each group became uniform (on day 0).
The adjuvant was intravenously administered to the control group in the same manner. The tumor volume of each individual was measured at a frequency of once or twice a week.

Compound	surviving period median (median survival time: MST) (LS174T [1]) [days]	prolongation of surviving period in comparison with the adjuvant alone group (LS174T [1])	antitumor effect (tumor volume), FIG. 2(a) (LS174T [2]; nude rat LS174T s.c., N26 5 mg/kg, 5-FU 100 mg/kg, i.v. day 0, 7, 14, 21)	antitumor effect (tumor volume), FIG. 2(b) (LS174T [2]; nude rat LS174T s.c., N26 5 mg/kg, oxaliplatin 15 mg/kg, i.v. day 0, 7, 14, 21)	body weight loss (LS174T [2]; nude rat, oxaliplatin 15 mg/kg administration group)
O=c1[nH]cc(F)c(=O)[nH]1 [5-FU, 5-fluorouracil]	24	prolongation of surviving period was not found	significant antitumor effect	–	–
CCc1c2c(nc3ccc(OC(=O)N4CCC(N5CCCCC5)CC4)cc13)-c1cc3c(c(=O)n1C2)COC(=O)[C@]3(O)CC [CPT-11, irinotecan]	41	significant prolongation of surviving period	–	–	–
O=C1[O][Pt]2([NH][C@@H]3CCCC[C@H]3[NH]2)[O]C1=O [oxaliplatin]	–	–	–	slight antitumor effect	significant body weight loss
